Data taken from patent US8664257B2, “Oxygen-substituted 3-heteroaroylamino-propionic acid derivatives and their use as pharmaceuticals” (Sanofi, priority 2010, dated 2014).

Target: T1, Recombinant human cathepsin A (Homo sapiens, UniProt P10619)
T1 construct: Recombinant human cathepsin A (residues 29-480, with a C-terminal 10-His tag); 10-His (C); purchased R&D Systems 1049-SE
T1 sequence (P10619 29-312 limits assumed): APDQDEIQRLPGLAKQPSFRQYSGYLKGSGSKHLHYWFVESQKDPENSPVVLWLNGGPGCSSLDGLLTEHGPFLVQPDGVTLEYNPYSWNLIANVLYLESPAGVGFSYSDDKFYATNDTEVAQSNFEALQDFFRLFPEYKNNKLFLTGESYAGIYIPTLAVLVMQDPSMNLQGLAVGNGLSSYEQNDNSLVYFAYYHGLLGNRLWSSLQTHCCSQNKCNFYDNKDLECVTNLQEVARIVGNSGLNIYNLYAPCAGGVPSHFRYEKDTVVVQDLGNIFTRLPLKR
T1 sequence (P10619 327-480 limits assumed): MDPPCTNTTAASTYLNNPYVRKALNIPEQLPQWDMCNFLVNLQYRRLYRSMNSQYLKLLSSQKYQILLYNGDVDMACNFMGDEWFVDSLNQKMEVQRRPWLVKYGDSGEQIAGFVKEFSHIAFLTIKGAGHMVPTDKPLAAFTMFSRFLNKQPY
Assay: Cathepsin A inhibitory activity
Format: biochemical
Details: number printed in place of a class symbol; unit from footnote (2); read-out: Activity (2): Cathepsin A inhibitory activity, IC50 printed as a numeric bound
Outline: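 Human cathepsin A (res. 29-480, C-His10) pre-activated with cathepsin L (MES pH 6.0, DTT, 15 min, 37 °C; quenched with 10 μM E-64). Enzyme (833 ng/ml) preincubated 15 min RT with compound in MES pH 5.5/DTT, then 2 μM Bodipy FL-bradykinin for 15 min RT. Capillary electrophoresis product/substrate peak areas; IC50 from % inhibition.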

SMILES	IC50 [nM]
CC(C)[C@@](C)(O)COc1cc(C(=O)N[C@@H](CC(=O)O)c2ccccc2Cl)nn1-c1ccccc1F [Example 861, (S)-3-(2-Chloro-phenyl)-3-{[1-(2-fluoro-phenyl)-5-((R)-2-hydroxy-2,3-dimethyl-butoxy)-1H-pyrazole-3-carbonyl]-amino}-propionic acid]	> 30000

Same assay, conditions: pharmacological test "Cathepsin A inhibitory activity"; IC50 given as class A/B/C; read-out: Activity (2): Cathepsin A inhibitory activity, IC50 class

SMILES	IC50 [nM]
COc1cccc([C@H](CC(=O)O)NC(=O)c2cc(O)n(-c3ccccc3)n2)c1OC [Example 170]	100 to 1000
COc1cccc([C@H](CC(=O)O)NC(=O)c2cc(O)n(-c3ccccc3F)n2)c1 [Example 237]	100 to 1000
O=C(O)C[C@H](NC(=O)c1cc(O)n(-c2ccc(F)cc2F)n1)c1ccc(C(F)(F)F)cc1 [Example 185]	100 to 1000
O=C(O)C[C@H](NC(=O)c1cc(O)n(-c2ccc(F)cc2F)n1)c1ccccc1C(F)(F)F [Example 198]	100 to 1000
COc1ccc(C(CC(=O)O)NC(=O)c2cc(O)n(-c3ccccc3)n2)c(OC)c1 (stereo not shown) [Example 161]	1000 to 30000
N#Cc1cccc([C@H](CC(=O)O)NC(=O)c2cc(O)n(-c3cccc(Cl)c3)n2)c1 [Example 252]	1000 to 30000
O=C(O)CC(NC(=O)c1cc(O)n(-c2cccc(Cl)c2)n1)c1cccc(Cl)c1Cl (stereo not shown) [Example 257]	100 to 1000

Same assay, conditions: read-out: Activity (2): Cathepsin A inhibitory activity (IC50 class)

SMILES	IC50 [nM]
Cc1ccc([C@H](CC(=O)O)NC(=O)c2cc(OC[C@](C)(O)C(C)(C)C)n(-c3ccccc3F)n2)cc1 [Example 780, (S)-3-{[1-(2-Fluoro-phenyl)-5-((R)-2-hydroxy-2,3,3-trimethyl-butoxy)-1H-pyrazole-3-carbonyl]-amino}-3-p-tolyl-propionic acid]	< 100
CCC(O)(CC)COc1cc(C(=O)N[C@@H](CC(=O)O)c2ccc(Cl)cc2Cl)nn1-c1ccccc1F [Example 762, (S)-3-(2,4-Dichloro-phenyl)-3-{[5-(2-ethyl-2-hydroxy-butoxy)-1-(2-fluoro-phenyl)-1H-pyrazole-3-carbonyl]-amino}-propionic acid]	< 100
CC(C)(C)[C@@](C)(O)COc1cc(C(=O)N[C@@H](CC(=O)O)c2cccc(C#N)c2)nn1-c1ccccc1F [Example 778, (S)-3-(3-Cyano-phenyl)-3-{[1-(2-fluoro-phenyl)-5-((R)-2-hydroxy-2,3,3-trimethyl-butoxy)-1H-pyrazole-3-carbonyl]-amino}-propionic acid]	< 100

Now from value to molecule:

IC50 [nM]	SMILES
< 100	COc1cc(C(=O)N[C@@H](CC(=O)O)c2ccc(Cl)cc2Cl)nn1-c1ccccc1F [Example 673]
< 100	CCOc1cc(C(=O)NC(CC(=O)O)c2cccc(F)c2C)nn1-c1ccccc1Cl (stereo not shown) [Example 725]
< 100	CC(C)(C)[C@@](C)(O)COc1cc(C(=O)N[C@@H](CC(=O)O)c2ccccc2Cl)nn1-c1ccccc1F (single isomer, unassigned) [Example 758]
< 100	N#Cc1ccc([C@H](CC(=O)O)NC(=O)c2cc(OCC3CC3)n(-c3ccccc3F)n2)cc1 [Example 688]
< 100	Cc1cc(COc2cc(C(=O)N[C@@H](CC(=O)O)c3ccccc3C)nn2-c2ccccc2F)on1 [Example 643]
< 100	Cc1ccccc1[C@H](CC(=O)O)NC(=O)c1cc(OCc2ccno2)n(-c2ccccc2F)n1 [Example 658]
100 to 1000	COc1cccc([C@H](CC(=O)O)NC(=O)c2cc(OC)n(-c3ccccc3F)n2)c1 [Example 669]
< 100	COc1cccc([C@H](CC(=O)O)NC(=O)c2cc(OC[C@@](C)(O)C(C)C)n(-c3ccccc3F)n2)c1OC [Example 769]
< 100	COc1c(F)c(C(=O)N[C@@H](CC(=O)O)c2ccccc2C)nn1-c1ccccc1F [Example 595]
< 100	CCOc1cc(C(=O)N[C@@H](CC(=O)O)c2ccccc2C)nn1-c1ccccc1 [Example 621]
< 100	COc1cc(C(=O)N[C@@H](CC(=O)O)c2cccc(Cl)c2Cl)nn1-c1ccccc1F [Example 681]

Same assay, conditions: read-out: Activity (2): Cathepsin A inhibitory activity, IC50 class

SMILES	IC50 [nM]
O=C(O)C[C@H](NC(=O)c1cc(O)n(-c2ccccc2)n1)c1ccccc1C(F)(F)F [Example 97]	100 to 1000
O=C(O)CC(NC(=O)c1cc(O)n(-c2ccccc2F)n1)c1ccc(-n2ccnc2)cc1 (stereo not shown) [Example 127]	1000 to 30000
CC(C)C[C@@H](CC(=O)O)NC(=O)c1cc(OC[C@@](C)(O)C(C)C)n(-c2ccccc2F)n1 [Example 841, (S)-3-{[1-(2-Fluoro-phenyl)-5-((S)-2-hydroxy-2,3-dimethyl-butoxy)-1H-pyrazole-3-carbonyl]-amino}-5-methyl-hexanoic acid]	1000 to 30000
CC(C)CC(CC(=O)O)NC(=O)c1cc(OC[C@](C)(O)C(C)C)n(-c2ccccc2F)n1 (stereo partly drawn) [Example 823, 3-{[1-(2-Fluoro-phenyl)-5-((R)-2-hydroxy-2,3-dimethyl-butoxy)-1H-pyrazole-3-carbonyl]-amino}-5-methyl-hexanoic acid]	100 to 1000
Cc1ccc(C(CC(=O)O)NC(=O)c2cc(O)n(-c3cccc(F)c3)n2)c(C)c1 (stereo not shown) [Example 325]	100 to 1000
CC(C)C(C)(O)COc1cc(C(=O)NC(CC(=O)O)Cc2ccccc2)nn1-c1ccccc1F (stereo not shown) [Example 829, 3-{[1-(2-Fluoro-phenyl)-5-(2-hydroxy-2,3-dimethyl-butoxy)-1H-pyrazole-3-carbonyl]-amino}-4-phenyl-butyric acid]	100 to 1000
Cc1ccccc1C(CC(=O)O)NC(=O)c1cc(O)n(-c2ccccc2)n1 (stereo not shown) [Example 21]	100 to 1000
O=C(O)C[C@H](NC(=O)c1cc(O)n(-c2ccccc2)n1)c1ccc(C(F)(F)F)cc1 [Example 99]	100 to 1000
O=C(O)CC(NC(=O)c1cc(O)n(-c2ccccc2)n1)c1ccccc1Cl (stereo not shown) [Example 20]	100 to 1000
O=C(O)CC(NC(=O)c1cc(O)n(-c2ccc(F)cc2)n1)c1ccc(-c2ccccc2)cc1 (stereo not shown) [Example 365]	100 to 1000
O=C(O)CC(NC(=O)c1cc(O)n(-c2cccc(F)c2)n1)c1ccc(-c2cccc(F)c2)cc1 (stereo not shown) [Example 319]	100 to 1000
Cc1ccc(C)c(-n2nc(C(=O)NC(CC(=O)O)c3ccccc3C)cc2O)c1 (stereo not shown) [Example 40]	100 to 1000
Cc1ccc(C)c(-n2nc(C(=O)NC(CC(=O)O)c3cccc(Cl)c3)cc2O)c1 (stereo not shown) [Example 29]	1000 to 30000
Cc1ccccc1[C@H](CC(=O)O)NC(=O)c1cc(OC[C@@](C)(O)C(C)C)n(-c2ccccc2F)n1 [Example 870, (S)-3-{[1-(2-Fluoro-phenyl)-5-((S)-2-hydroxy-2,3-dimethyl-butoxy)-1H-pyrazole-3-carbonyl]-amino}-3-o-tolyl-propionic acid]	< 100

Same assay, conditions: recombinant human cathepsin A 833 ng/ml, Bodipy FL-labeled bradykinin 2 μM, pH 5.5; read-out: CATH-A IC50

SMILES	IC50 [nM]
O=C(O)CC(NC(=O)c1cc(O)n(-c2ccccc2Cl)n1)c1ccc(-c2ccccn2)cc1 (stereo not shown) [Example 506, 3-{[1-(2-Chloro-phenyl)-5-hydroxy-1H-pyrazole-3-carbonyl]-amino}-3-(4-pyridin-2-yl-phenyl)-propionic acid]	52.4
O=C(O)CC(NC(=O)c1cc(O)n(-c2cccc(Cl)c2)n1)c1cc(F)ccc1F (stereo not shown) [Example 465, 3-{[1-(3-Chloro-phenyl)-5-hydroxy-1H-pyrazole-3-carbonyl]-amino}-3-(2,5-difluoro-phenyl)-propionic acid]	738
CC(C)(C)[C@@](C)(O)COc1cc(C(=O)N[C@@H](CC(=O)O)c2ccccc2Cl)nn1-c1ccccc1F (single isomer, unassigned) [Example 758]	17.4
COc1cccc(F)c1C(CC(=O)O)NC(=O)c1cc(O)n(-c2ccccc2Cl)n1 (stereo not shown) [Example 457, 3-{[1-(2-Chloro-phenyl)-5-hydroxy-1H-pyrazole-3-carbonyl]-amino}-3-(2-fluoro-6-methoxy-phenyl)-propionic acid]	170
COc1ccc(F)cc1C(CC(=O)O)NC(=O)c1cc(O)n(-c2ccccc2Cl)n1 (stereo not shown) [Example 504, 3-{[1-(2-Chloro-phenyl)-5-hydroxy-1H-pyrazole-3-carbonyl]-amino}-3-(5-fluoro-2-methoxy-phenyl)-propionic acid]	123
Cc1ccccc1[C@H](CC(=O)O)NC(=O)c1cc(OC[C@@](C)(O)C(C)C)n(-c2ccccc2F)n1 [Example 870, (S)-3-{[1-(2-Fluoro-phenyl)-5-((S)-2-hydroxy-2,3-dimethyl-butoxy)-1H-pyrazole-3-carbonyl]-amino}-3-o-tolyl-propionic acid]	76

Same assay, conditions: recombinant human cathepsin A; read-out: Activity (2): Cathepsin A inhibitory activity, IC50 class

SMILES	IC50 [nM]
N#Cc1ccc([C@H](CC(=O)O)NC(=O)c2cc(O)n(-c3cccc(Cl)c3)n2)cc1 [Example 410]	1000 to 30000
Cc1ccc(C(CC(=O)O)NC(=O)c2cc(O)n(-c3cccc(Cl)c3)n2)c(C)c1 (stereo not shown) [Example 419]	100 to 1000

The next lines start with the values.

IC50 [nM]	SMILES
100 to 1000	Cc1c(F)cccc1C(CC(=O)O)NC(=O)c1cc(O)n(-c2ccc(F)cc2)n1 (stereo not shown) [Example 523, 3-(3-Fluoro-2-methyl-phenyl)-3-{[1-(4-fluoro-phenyl)-5-hydroxy-1H-pyrazole-3-carbonyl]-amino}-propionic acid]
< 100	COC[C@H](C)NC(=O)C[C@H](NC(=O)c1cc(OC)n(-c2ccccc2F)n1)c1ccccc1C [Example 937, 1-(2-Fluoro-phenyl)-5-methoxy-1H-pyrazole-3-carboxylic acid [(S)-2-((S)-2-methoxy-1-methyl-ethylcarbamoyl)-1-o-tolyl-ethyl]-amide]
< 100	O=C(O)CC(NC(=O)c1cc(O)n(-c2ccccc2Cl)n1)c1ccc(-c2ccccn2)cc1 (stereo not shown) [Example 506, 3-{[1-(2-Chloro-phenyl)-5-hydroxy-1H-pyrazole-3-carbonyl]-amino}-3-(4-pyridin-2-yl-phenyl)-propionic acid]
100 to 1000	O=C(O)CC(NC(=O)c1cc(O)n(-c2cccc(Cl)c2)n1)c1cc(F)ccc1F (stereo not shown) [Example 465, 3-{[1-(3-Chloro-phenyl)-5-hydroxy-1H-pyrazole-3-carbonyl]-amino}-3-(2,5-difluoro-phenyl)-propionic acid]
100 to 1000	O=C(O)C[C@H](NC(=O)c1cc(O)n(-c2cccc(F)c2)n1)c1cccc(Cl)c1Cl [Example 428]
100 to 1000	COc1cccc(F)c1C(CC(=O)O)NC(=O)c1cc(O)n(-c2ccccc2Cl)n1 (stereo not shown) [Example 457, 3-{[1-(2-Chloro-phenyl)-5-hydroxy-1H-pyrazole-3-carbonyl]-amino}-3-(2-fluoro-6-methoxy-phenyl)-propionic acid]
100 to 1000	COc1ccc(F)cc1C(CC(=O)O)NC(=O)c1cc(O)n(-c2ccccc2Cl)n1 (stereo not shown) [Example 504, 3-{[1-(2-Chloro-phenyl)-5-hydroxy-1H-pyrazole-3-carbonyl]-amino}-3-(5-fluoro-2-methoxy-phenyl)-propionic acid]
100 to 1000	O=C(O)C[C@H](NC(=O)c1cc(O)n(-c2cccc(F)c2)n1)c1ccccc1Cl [Example 522]
